Here are results for 44 compounds from paper PMC9214071 (Acta Pharmaceutica Sinica. B, 2022).

One test addresses PAK4 (Homo sapiens, UniProt O96013). Nature of the test: PAK4 HTRF assay. Particulars: for LE: Ligand efficiency = (−1.4 Log Ki)/(n heavy atoms); for LE / Ki / LLE: PAK4 Ki; for Ki: HTRF, average of two independent experiments; for LLE: Ligand lipophilicity efficiency = (−Log Ki) − (cLogP). Type of test: biochemical.
The next test concerns the target PAK1 (Homo sapiens, UniProt Q13153). The test can be described thus: PAK1 FRET-based Z'-Lyte assay. Type of test: biochemical. To be noted: at least two duplicate experiments, SEM < ±20%.

Chain of PAK4 (O96013 whole entry): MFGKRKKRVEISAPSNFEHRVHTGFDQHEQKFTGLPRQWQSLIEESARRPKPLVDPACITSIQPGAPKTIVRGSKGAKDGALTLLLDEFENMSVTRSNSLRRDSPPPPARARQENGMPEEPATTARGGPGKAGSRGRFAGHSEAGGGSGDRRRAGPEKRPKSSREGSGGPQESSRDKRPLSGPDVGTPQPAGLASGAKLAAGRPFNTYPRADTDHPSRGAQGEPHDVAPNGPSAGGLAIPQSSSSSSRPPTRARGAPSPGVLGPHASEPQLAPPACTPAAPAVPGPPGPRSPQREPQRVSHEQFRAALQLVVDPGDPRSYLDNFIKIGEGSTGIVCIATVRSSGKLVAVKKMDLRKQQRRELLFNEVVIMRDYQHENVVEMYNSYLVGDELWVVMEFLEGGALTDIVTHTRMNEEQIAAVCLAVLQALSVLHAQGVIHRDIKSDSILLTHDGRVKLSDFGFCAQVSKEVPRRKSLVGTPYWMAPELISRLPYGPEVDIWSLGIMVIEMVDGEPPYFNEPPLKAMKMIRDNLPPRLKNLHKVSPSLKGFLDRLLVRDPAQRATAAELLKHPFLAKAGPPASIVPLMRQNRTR
Chain of PAK1 (Q13153 whole entry): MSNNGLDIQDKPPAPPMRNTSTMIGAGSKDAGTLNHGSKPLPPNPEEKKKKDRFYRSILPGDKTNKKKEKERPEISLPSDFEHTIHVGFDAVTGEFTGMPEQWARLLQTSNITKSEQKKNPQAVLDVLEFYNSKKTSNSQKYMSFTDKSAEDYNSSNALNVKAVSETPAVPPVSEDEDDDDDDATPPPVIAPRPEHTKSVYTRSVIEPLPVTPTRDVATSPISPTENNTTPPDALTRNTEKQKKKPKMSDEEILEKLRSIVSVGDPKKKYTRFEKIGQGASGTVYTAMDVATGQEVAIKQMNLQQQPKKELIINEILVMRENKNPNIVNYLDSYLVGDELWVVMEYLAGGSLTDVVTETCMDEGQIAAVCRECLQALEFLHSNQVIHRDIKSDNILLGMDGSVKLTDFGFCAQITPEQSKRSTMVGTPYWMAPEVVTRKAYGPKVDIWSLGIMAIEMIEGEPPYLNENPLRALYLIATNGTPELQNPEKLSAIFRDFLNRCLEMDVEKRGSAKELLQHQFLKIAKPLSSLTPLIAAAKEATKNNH

On PAK4, `Nc1nccc(-n2ccc3ccc(C#CC4(O)CCCCC4)cc32)n1` [Compound 5] yielded an LE of 0.39 and a Ki of 0.066 µM.
For the compound `Nc1nccc(-n2ccc3cc(F)c(C#CC4(O)CCCCC4)cc32)n1` [Compound 5a], on PAK4, the LE turned out to be 0.38 and the affinity, expressed as Ki, was 0.082 µM.
At PAK4, `Nc1cc(-n2ccc3ccc(C#CC4(O)CCCCC4)cc32)nc(N)n1` [Compound 5b] showed an LE of 0.33 and a Ki of 0.37 µM.
Turning to `Nc1cc(-n2ccc3ccc(C#CC4(O)CCCCC4)cc32)ncn1` [Compound 5c], on PAK4, the LE amounted to 0.36 and the Ki was found to be 0.229 µM.
At PAK4, `Cc1cnc(N)nc1-n1ccc2ccc(C#CC3(O)CCCCC3)cc21` [Compound 5d] showed an LE of 0.35 and a Ki of 0.182 µM.
The like results for `Nc1nccc(-n2ncc3ccc(C#CC4(O)CCCCC4)cc32)n1` [Compound 6] were, in that order, 0.40 and 0.04 µM.
At PAK4, `Nc1nccc(-n2ccc3ncc(C#CC4(O)CCCCC4)cc32)n1` [Compound 7] had an LE of 0.40 and a Ki of 0.036 µM.
At PAK4, `Nc1nccc(-n2ccc3cnc(C#CC4(O)CCCCC4)cc32)n1` [Compound 8] came in with an LE of 0.42 and a Ki of 0.013 µM.
On to `Nc1nccc(-n2ccc3ccc(C#CC4(O)CCCCC4)nc32)n1` [Compound 9], for which, on PAK4, the LE was 0.36 and affinity was put at a Ki of 0.183 µM.
Consider `OC1(C#Cc2ccc3ccn(-c4ccnc(NCc5ccccc5)n4)c3c2)CCCCC1` [Compound 10], for which the Ki on PAK4 is 0.623 µM.
Compound `OC1(C#Cc2ccc3ccn(-c4ccnc(NCc5ccccc5F)n4)c3c2)CCCCC1` [Compound 11] displayed a Ki on PAK4 of 0.223 µM.
As for `OC1(C#Cc2ccc3ccn(-c4ccnc(NCc5ccccc5Cl)n4)c3c2)CCCCC1` [Compound 12], affinity on PAK4 was put at a Ki of 0.355 µM.
In the case of `OC1(C#Cc2ccc3ccn(-c4ccnc(NCc5ccc(F)cc5)n4)c3c2)CCCCC1` [Compound 13], at PAK4, the Ki stood at 0.291 µM.
Still for that read-out and setting: for `OC1(C#Cc2ccc3ccn(-c4ccnc(NCc5cccs5)n4)c3c2)CCCCC1` [Compound 14] the value was 7.45 µM; for `OC1(C#Cc2ccc3ccn(-c4ccnc(Nc5ccccc5)n4)c3c2)CCCCC1` [Compound 15], 0.217 µM; for `OC1(C#Cc2ccc3ccn(-c4ccnc(Nc5cccc(Cl)c5)n4)c3c2)CCCCC1` [Compound 16], 0.105 µM.
With `O=[N+]([O-])c1cccc(Nc2nccc(-n3ccc4ccc(C#CC5(O)CCCCC5)cc43)n2)c1` [Compound 17], affinity on PAK4 was put at a Ki of 0.157 µM.
`N#Cc1cccc(Nc2nccc(-n3ccc4ccc(C#CC5(O)CCCCC5)cc43)n2)c1` [Compound 18] returned a Ki at PAK4 of 0.242 µM. This Ki is about 1.5-fold higher than that of the compound before.
In the case of `Cc1cccc(Nc2nccc(-n3ccc4ccc(C#CC5(O)CCCCC5)cc43)n2)c1` [Compound 19], the Ki at PAK4 was found to be 0.212 µM.
`OC1(C#Cc2ccc3ccn(-c4ccnc(Nc5ccccc5F)n4)c3c2)CCCCC1` [Compound 20] gave a Ki at PAK4 of 0.396 µM. Against the preceding compound, the Ki is about 1.9-fold higher.
On PAK4, `OC1(C#Cc2ccc3ccn(-c4ccnc(Nc5ccccc5C(F)(F)F)n4)c3c2)CCCCC1` [Compound 21] gave a Ki of 0.173 µM.
Turning to `Cc1ccccc1Nc1nccc(-n2ccc3ccc(C#CC4(O)CCCCC4)cc32)n1` [Compound 22], at PAK4, affinity was put at a Ki of 0.709 µM. Compared with the last compound, the Ki is about 4.1-fold higher.
In turn, `COc1ccc(Nc2nccc(-n3ccc4ccc(C#CC5(O)CCCCC5)cc43)n2)cc1` [Compound 24] registered a Ki at PAK4 of 0.298 µM.
As for `OC1(C#Cc2ccc3ccn(-c4ccnc(Nc5ccc(F)c(Cl)c5)n4)c3c2)CCCCC1` [Compound 25], the Ki at PAK4 is 0.189 µM.
The compound `NS(=O)(=O)c1cccc(Nc2nccc(-n3ccc4ccc(C#CC5(O)CCCCC5)cc43)n2)c1` [Compound 26] yielded a Ki at PAK4 of 0.083 µM.
On the same count and under the same terms, as for `COCCNc1nccc(-n2ccc3ccc(C#CC4(O)CCCCC4)cc32)n1` [Compound 28], the figure is 0.68 µM.
Regarding `CC(C)Nc1nccc(-n2ccc3ccc(C#CC4(O)CCCCC4)cc32)n1` [Compound 29], the affinity at PAK4 corresponds to a Ki of 1.11 µM.
In turn, `Nc1nccc(-n2cc(C(=O)NCc3ccccc3)c3ccc(C#CC4(O)CCCCC4)cc32)n1` [Compound 30] came in with a Ki on PAK4 of 0.593 µM.
With `Nc1nccc(-n2cc(C(=O)Nc3ccccc3)c3ccc(C#CC4(O)CCCCC4)cc32)n1` [Compound 31], on PAK4, the Ki came to 0.804 µM. The Ki values of the last two compounds are within 1.5-fold of each other.
At PAK4, `Nc1nccc(-n2cc(C(=O)Nc3nccs3)c3ccc(C#CC4(O)CCCCC4)cc32)n1` [Compound 32] returned a Ki of 0.243 µM.
On the same count and under the same terms, as for `Nc1nccc(-n2cc(C(=O)Nc3cc[nH]n3)c3ccc(C#CC4(O)CCCCC4)cc32)n1` [Compound 33], the figure is 0.239 µM; as for `Nc1ccn(C(=O)c2cn(-c3ccnc(N)n3)c3cc(C#CC4(O)CCCCC4)ccc23)n1` [Compound 34], 0.094 µM.
On PAK4, `Nc1nccc(-n2cc(C(=O)Nc3cc(O)[nH]n3)c3ccc(C#CC4(O)CCCCC4)cc32)n1` [Compound 35] registered a Ki of 0.376 µM.
Compound `Nc1nccc(-n2cc(C(=O)N3CCOCC3)c3ccc(C#CC4(O)CCCCC4)cc32)n1` [Compound 37] gave a Ki on PAK4 of 0.119 µM. This Ki lies about 3.2-fold lower than the previous one.
Same read-out and setting: for `CN1CCN(C(=O)c2cn(-c3ccnc(N)n3)c3cc(C#CC4(O)CCCCC4)ccc23)CC1` [Compound 38] the value was 0.038 µM; for `CN(C)C(=O)c1cn(-c2ccnc(N)n2)c2cc(C#CC3(O)CCCCC3)ccc12` [Compound 39], 0.082 µM; for `CNC(=O)c1cn(-c2ccnc(N)n2)c2cc(C#CC3(O)CCCCC3)ccc12` [Compound 40], 0.044 µM.
Turning to `Nc1nccc(-n2cc(C(=O)N3CCC(N)CC3)c3ccc(C#CC4(O)CCCCC4)cc32)n1` [Compound 43], on PAK4, the LE was 0.29, the LLE was determined as 4.16 and affinity was put at a Ki of 0.0426 µM. The same compound yielded a Ki at PAK1 of 1.61 µM.
As for `Nc1nccc(-n2cc(C(=O)NC3CCNCC3)c3ccc(C#CC4(O)CCCCC4)cc32)n1` [Compound 44], at PAK4, the LE is 0.32, the LLE is listed as 5.28 and the Ki came to 0.0083 µM. For the same compound, the Ki on PAK1 turned out to be 4.24 µM.
For `Nc1nccc(-n2cc(C(=O)N3CCC[C@H](N)C3)c3ccc(C#CC4(O)CCCCC4)cc32)n1` [Compound 45, (S)-(3-Aminopiperidin-1-yl) (1-(2-aminopyrimidin-4-yl)-6-((1-hydroxycyclohexyl)ethynyl)-1H-indol-3-yl)methanone], at PAK4, the LE was found to be 0.30; the LLE is recorded as 4.80; the affinity, expressed as Ki, was 0.0256 µM. The compound further came in with a Ki on PAK1 of 2.37 µM.
At PAK4, `Nc1nccc(-n2cc(C(=O)N3CCC[C@@H](O)C3)c3ccc(C#CC4(O)CCCCC4)cc32)n1` [Compound 49] gave an LE of 0.27, an LLE of 4.12 and an inhibitory constant (Ki) of 0.207 µM. Also, the “factor of reduced activity relative to 47” value on PAK4 (PAK4, relative to 47) came out at 60.
Consider `Nc1nccc(-n2cc(C(=O)N[C@H]3CCNC3)c3ccc(C#CC4(O)CCCCC4)cc32)n1` [Compound 50], for which, at PAK4, the LE was found to be 0.31, the LLE came out at 4.40 and the affinity corresponds to a Ki of 0.0272 µM.
On PAK4, `Nc1nccc(-n2cc(C(=O)N[C@@H]3CCNC3)c3ccc(C#CC4(O)CCCCC4)cc32)n1` [Compound 52] returned an LE of 0.31, an LLE of 5.48 and a Ki of 0.0309 µM.
Take `C[C@@H]1CN(C(=O)c2cn(-c3ccnc(N)n3)c3cc(C#CC4(O)CCCCC4)ccc23)CCN1` [Compound 54]: at PAK4, the LE was 0.27; the LLE was determined as 3.53; the affinity, expressed as Ki, was 0.148 µM. Moreover, the “fold less potency than 55 against PAK4” value at PAK4 (relative to 55) is listed as “approximately 14 fold”.
